The source of these data is ChEMBL document CHEMBL6114977, “Identification and optimization of a small molecule inhibitor of the ovarian tumor protease of the Crimean-Congo hemorrhagic fever virus” (Bioorg Med Chem, 2025).

Data set [1] deals with T1, RNA-directed RNA polymerase L (Crimean-Congo hemorrhagic fever virus, UniProt Q6TQR6). In words: (§1) Inhibition of CCHF OTU (ovarian tumor) protease (1 to 169 residues) extracted from Escherichia coli BL21 (DE3) cells using ubiquitin rhodamine 110 as substrate incubated for 30 mins by fluorescence based SynergyH1 plate reader analysis.
The target in data set [2] is T1, RNA-directed RNA polymerase L. In words: Inhibition of CCHF OTU (ovarian tumor) protease (1 to 169 residues) extracted from Escherichia coli BL21 (DE3) cells assessed as inhibition constant by fluorescence based SynergyH1 plate reader analysis.
The target in data set [3] is Ubiquitin carboxyl-terminal hydrolase 7 (Homo sapiens) (UniProt Q93009). The experiment in a line: Inhibition of human USP7 using ubiquitin rhodamine 110 as substrate at 50 uM incubated for 30 mins by fluorescence based SynergyH1 plate reader analysis.
Data set [4] deals with Fc1cc(Nc2nc(-c3ccc(C(F)(F)F)cc3)cs2)ccc1-c1nnn[nH]1. In words: Competitive inhibition of CCHF OTU (ovarian tumor) protease (1 to 169 residues) extracted from Escherichia coli BL21 (DE3) cells using ubiquitin rhodamine 110 as substrate assessed as Km by Michaelis-Menten analysis (reference value: 31.6 nM). The conditions noted are these: Crimean-Congo hemorrhagic fever virus.

The target in data set [5] is RNA-directed RNA polymerase L (Crimean-Congo hemorrhagic fever virus) (UniProt Q6TQR6). Described as §1.
For data set [6], the target named is T2, OTU domain-containing protein 1 (Homo sapiens) (UniProt Q5VV17).
T2 sequence (whole entry): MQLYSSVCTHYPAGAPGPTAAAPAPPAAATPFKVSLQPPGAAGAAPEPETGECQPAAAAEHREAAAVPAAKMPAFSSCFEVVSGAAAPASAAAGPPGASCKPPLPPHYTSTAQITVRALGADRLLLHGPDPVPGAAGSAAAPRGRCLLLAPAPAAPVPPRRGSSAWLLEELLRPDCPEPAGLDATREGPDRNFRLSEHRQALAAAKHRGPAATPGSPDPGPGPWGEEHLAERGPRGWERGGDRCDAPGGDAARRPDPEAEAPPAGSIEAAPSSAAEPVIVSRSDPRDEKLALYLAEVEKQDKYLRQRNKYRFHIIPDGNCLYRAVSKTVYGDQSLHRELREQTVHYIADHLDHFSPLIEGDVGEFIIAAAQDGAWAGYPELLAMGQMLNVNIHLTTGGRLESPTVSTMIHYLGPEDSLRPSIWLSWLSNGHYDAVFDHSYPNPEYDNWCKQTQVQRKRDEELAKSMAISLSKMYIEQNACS
In words: Inhibition of human OTUD1 using ubiquitin rhodamine 110 as substrate at 50 uM incubated for 30 mins by fluorescence based SynergyH1 plate reader analysis.

The target of data set [7] is T3, OTU domain-containing protein 7B (Homo sapiens) (UniProt Q6GQQ9).
T3 sequence (whole entry): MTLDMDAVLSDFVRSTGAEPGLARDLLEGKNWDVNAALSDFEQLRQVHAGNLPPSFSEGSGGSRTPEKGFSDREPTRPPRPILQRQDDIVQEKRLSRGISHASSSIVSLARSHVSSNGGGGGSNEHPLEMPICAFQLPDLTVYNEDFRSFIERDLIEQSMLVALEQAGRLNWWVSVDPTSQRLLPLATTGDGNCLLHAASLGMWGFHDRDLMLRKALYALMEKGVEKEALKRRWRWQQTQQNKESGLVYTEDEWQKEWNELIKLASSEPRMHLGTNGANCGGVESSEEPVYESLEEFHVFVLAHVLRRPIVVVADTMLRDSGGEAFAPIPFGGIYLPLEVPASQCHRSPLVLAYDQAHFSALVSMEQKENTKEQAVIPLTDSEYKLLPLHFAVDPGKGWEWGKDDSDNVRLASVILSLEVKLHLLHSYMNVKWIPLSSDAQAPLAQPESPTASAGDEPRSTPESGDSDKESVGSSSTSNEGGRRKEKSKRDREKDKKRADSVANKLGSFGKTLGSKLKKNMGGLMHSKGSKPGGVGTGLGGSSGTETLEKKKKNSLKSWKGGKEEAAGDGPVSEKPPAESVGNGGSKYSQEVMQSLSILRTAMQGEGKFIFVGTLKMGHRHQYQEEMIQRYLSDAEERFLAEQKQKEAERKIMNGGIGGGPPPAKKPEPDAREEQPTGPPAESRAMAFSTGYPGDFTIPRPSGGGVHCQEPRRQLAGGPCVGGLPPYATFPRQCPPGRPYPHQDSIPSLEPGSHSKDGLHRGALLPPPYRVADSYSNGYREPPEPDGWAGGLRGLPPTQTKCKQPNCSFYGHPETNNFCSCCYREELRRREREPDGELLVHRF
In words: Inhibition of human cezanne using ubiquitin rhodamine 110 as substrate at 50 uM incubated for 30 mins by fluorescence based SynergyH1 plate reader analysis.

For data set [8], the target named is T4, Ubiquitin carboxyl-terminal hydrolase isozyme L5 (Homo sapiens) (UniProt Q9Y5K5).
T4 sequence (whole entry): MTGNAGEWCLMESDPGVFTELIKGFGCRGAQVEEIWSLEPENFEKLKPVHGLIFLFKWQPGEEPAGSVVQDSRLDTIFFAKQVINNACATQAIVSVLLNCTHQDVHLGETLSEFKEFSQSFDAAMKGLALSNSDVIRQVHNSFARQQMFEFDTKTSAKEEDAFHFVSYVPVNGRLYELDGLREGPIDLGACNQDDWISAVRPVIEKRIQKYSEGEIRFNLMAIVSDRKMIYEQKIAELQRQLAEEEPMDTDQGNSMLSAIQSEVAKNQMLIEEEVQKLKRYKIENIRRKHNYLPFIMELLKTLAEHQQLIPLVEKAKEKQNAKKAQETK
In words: Inhibition of human UCHL5 using ubiquitin rhodamine 110 as substrate at 50 uM incubated for 30 mins by fluorescence based SynergyH1 plate reader analysis.

pIC50, pKi: −log10 of the molar value. The source made the active and inactive calls. No cut-off for these calls is given here.

Chain of Ubiquitin carboxyl-terminal hydrolase 7 (Homo sapiens) (Q93009 whole entry, looked up, the tested form may be a part): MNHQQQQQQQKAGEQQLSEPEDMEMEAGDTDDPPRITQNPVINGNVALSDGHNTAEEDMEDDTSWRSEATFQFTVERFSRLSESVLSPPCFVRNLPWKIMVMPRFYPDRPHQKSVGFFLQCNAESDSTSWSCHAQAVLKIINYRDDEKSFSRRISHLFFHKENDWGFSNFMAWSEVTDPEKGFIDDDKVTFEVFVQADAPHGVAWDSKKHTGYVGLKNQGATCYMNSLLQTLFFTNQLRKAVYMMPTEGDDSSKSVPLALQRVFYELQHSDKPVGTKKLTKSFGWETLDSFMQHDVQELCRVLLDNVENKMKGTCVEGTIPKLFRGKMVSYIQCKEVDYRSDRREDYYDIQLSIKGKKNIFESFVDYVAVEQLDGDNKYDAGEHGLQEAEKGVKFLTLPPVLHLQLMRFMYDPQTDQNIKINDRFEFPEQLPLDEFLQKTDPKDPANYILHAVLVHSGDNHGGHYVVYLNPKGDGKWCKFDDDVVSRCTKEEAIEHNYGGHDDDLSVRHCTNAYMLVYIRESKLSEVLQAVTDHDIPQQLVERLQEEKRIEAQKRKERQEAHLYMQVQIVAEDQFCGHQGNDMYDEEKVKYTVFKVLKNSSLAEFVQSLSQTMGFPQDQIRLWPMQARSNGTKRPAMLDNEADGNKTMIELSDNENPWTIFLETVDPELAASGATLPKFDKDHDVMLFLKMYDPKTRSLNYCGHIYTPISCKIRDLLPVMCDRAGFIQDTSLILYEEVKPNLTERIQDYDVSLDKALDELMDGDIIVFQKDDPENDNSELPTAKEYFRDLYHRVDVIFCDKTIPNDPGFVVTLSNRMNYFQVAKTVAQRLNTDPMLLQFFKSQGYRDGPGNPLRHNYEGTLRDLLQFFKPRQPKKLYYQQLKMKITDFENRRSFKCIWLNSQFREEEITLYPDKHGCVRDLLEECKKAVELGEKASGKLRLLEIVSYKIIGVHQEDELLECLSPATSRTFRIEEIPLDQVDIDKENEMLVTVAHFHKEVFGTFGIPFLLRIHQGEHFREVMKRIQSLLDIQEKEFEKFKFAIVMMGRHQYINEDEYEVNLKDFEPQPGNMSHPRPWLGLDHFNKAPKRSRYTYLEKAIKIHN
T1 sequence (Q6TQR6 whole entry, the tested form may be a part): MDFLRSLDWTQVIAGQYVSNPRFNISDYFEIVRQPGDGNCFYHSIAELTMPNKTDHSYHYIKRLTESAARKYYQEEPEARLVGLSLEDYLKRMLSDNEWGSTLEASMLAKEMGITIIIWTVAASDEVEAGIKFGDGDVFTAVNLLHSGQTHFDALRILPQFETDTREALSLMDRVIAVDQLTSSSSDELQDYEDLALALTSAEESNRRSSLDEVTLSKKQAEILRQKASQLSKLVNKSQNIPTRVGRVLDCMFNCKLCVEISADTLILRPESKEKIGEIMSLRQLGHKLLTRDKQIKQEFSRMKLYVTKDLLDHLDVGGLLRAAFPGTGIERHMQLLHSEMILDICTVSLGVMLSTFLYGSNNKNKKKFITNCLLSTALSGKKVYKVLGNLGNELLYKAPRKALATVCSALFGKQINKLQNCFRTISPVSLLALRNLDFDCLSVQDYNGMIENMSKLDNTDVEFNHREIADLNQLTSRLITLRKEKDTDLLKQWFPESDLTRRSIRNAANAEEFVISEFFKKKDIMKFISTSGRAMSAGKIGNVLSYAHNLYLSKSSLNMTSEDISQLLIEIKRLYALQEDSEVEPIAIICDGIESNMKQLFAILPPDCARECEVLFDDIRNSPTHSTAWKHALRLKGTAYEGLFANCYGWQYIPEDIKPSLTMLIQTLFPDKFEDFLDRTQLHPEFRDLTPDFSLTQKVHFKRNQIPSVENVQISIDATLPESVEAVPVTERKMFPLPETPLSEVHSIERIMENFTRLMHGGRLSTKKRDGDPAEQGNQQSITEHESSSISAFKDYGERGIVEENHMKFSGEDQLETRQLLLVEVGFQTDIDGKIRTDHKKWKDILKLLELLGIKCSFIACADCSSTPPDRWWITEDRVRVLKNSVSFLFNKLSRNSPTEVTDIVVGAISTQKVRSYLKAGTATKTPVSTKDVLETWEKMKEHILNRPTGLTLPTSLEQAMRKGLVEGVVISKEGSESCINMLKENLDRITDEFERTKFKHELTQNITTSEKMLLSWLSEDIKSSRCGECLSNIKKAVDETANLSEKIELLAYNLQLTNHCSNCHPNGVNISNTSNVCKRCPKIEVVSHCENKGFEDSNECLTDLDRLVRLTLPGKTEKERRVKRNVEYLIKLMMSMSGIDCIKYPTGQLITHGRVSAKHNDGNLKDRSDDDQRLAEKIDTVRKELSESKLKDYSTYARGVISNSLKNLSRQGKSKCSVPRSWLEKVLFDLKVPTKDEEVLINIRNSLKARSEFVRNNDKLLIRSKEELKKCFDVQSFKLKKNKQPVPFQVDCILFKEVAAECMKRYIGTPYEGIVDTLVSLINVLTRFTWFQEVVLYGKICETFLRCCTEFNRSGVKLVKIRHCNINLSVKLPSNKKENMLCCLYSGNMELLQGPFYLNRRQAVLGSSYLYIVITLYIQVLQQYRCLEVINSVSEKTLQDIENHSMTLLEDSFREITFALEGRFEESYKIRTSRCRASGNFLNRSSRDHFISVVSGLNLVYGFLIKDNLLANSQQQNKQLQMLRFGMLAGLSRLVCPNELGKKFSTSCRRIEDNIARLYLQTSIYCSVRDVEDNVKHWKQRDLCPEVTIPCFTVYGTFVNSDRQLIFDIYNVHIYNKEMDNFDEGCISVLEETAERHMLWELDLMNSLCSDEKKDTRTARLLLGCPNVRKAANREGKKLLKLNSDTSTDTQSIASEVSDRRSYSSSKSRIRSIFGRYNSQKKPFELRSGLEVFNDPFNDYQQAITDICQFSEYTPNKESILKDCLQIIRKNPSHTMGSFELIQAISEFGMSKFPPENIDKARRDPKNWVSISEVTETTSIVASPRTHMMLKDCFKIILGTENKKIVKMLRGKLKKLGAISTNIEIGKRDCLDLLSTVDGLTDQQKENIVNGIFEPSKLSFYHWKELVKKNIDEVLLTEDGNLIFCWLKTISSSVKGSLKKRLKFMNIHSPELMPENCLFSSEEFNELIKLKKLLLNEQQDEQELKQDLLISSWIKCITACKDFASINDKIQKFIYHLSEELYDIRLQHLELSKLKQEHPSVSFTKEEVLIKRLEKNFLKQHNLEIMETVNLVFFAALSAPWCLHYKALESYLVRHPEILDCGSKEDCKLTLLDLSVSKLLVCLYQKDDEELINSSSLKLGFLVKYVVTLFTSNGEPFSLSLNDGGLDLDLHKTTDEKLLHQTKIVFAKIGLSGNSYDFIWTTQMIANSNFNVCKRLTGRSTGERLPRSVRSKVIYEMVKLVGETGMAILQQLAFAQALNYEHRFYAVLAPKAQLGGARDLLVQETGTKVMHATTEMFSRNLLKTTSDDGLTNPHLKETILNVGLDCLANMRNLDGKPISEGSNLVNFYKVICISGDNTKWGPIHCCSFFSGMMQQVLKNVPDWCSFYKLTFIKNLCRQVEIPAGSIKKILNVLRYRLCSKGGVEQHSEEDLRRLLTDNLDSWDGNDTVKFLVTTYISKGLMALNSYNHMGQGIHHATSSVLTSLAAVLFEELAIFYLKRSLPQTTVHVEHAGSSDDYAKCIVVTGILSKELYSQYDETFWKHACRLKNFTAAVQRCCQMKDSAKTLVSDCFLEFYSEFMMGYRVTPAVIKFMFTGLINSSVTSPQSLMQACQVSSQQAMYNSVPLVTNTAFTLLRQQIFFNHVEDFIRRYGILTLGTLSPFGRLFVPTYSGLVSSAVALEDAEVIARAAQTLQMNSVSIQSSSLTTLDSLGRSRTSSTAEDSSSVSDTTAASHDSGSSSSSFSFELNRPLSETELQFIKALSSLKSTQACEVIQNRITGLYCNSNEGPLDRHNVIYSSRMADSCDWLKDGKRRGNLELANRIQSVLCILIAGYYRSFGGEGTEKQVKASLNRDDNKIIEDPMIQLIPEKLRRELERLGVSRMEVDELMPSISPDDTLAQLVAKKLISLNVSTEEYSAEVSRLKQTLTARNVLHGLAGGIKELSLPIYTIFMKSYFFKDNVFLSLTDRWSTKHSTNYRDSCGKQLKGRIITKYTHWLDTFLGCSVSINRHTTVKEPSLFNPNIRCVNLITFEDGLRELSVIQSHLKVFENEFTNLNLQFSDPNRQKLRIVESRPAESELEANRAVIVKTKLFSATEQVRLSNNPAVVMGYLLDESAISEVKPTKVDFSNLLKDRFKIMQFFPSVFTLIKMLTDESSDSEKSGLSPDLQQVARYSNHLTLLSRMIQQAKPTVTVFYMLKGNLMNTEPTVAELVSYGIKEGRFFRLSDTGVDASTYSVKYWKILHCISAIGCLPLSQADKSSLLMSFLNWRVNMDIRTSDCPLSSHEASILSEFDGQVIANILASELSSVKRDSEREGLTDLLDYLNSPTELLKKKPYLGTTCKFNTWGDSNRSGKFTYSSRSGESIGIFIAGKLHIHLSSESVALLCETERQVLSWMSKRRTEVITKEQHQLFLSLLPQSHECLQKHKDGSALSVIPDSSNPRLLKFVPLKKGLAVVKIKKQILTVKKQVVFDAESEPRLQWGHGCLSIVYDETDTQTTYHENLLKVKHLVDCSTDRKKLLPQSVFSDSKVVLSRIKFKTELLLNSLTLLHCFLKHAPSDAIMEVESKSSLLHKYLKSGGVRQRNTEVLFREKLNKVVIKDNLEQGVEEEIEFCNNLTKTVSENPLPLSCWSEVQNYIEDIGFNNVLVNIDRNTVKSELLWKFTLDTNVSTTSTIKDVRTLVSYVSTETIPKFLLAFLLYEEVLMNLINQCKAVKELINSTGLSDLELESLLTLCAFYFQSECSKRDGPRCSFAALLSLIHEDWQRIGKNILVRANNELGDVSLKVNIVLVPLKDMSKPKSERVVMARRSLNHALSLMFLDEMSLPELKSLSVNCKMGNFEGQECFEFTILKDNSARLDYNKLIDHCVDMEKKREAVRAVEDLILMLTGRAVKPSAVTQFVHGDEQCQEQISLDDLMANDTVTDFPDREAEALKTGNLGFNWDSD

In the case of `FC(F)(F)c1ccc(-c2csc(Nc3ccc(-c4nnn[nH]4)cc3)n2)cc1`, the negative logarithm of the IC50 (pIC50) in data set [1] is 4.78. The negative-log Ki (pKi) in data set [2] was 4.99. The inhibition entry in data set [3] is “Active”.

For `Cc1cc(Nc2nc(-c3ccc(C(F)(F)F)cc3)cs2)ccc1-c1nnn[nH]1`, in data set [1], the negative-log IC50 (pIC50) was 4.70. In addition, the pKi in data set [2] is 4.91.

On to “RNA-directed RNA polymerase L (Crimean-Congo hemorrhagic fever virus), Q6TQR6”, for which the Michaelis-Menten constant (Km) in data set [4] was determined as 0.264 µM.

Turning to `N#Cc1ccc(Nc2nc(-c3ccc(C(F)(F)F)cc3)cs2)cc1`, the negative logarithm of the IC50 (pIC50) in data set [1] was less than 4.00.

Consider `Cc1cc(NS(=O)(=O)c2ccc(Nc3nc(-c4ccc(Br)cc4)cs3)cc2)no1`, for which the pIC50 in data set [1] is 4.27. In addition, the pKi in data set [2] was 4.48.

As to `Cc1cc(NS(=O)(=O)c2ccc(Nc3nc(-c4ccccn4)cs3)cc2)no1`, the negative-log IC50 (pIC50) in data set [1] is less than 4.00.

Take `Cc1cc(-c2nnn[nH]2)ccc1Nc1nc(-c2ccc(C(F)(F)F)cc2)cs1`: the pIC50 in data set [1] is 4.71. Further, in data set [2], the negative-log Ki (pKi) was 4.92. Also, in data set [3], the inhibition entry was “Active”.

Take `FC(F)(F)c1ccc(-c2ccnc(Nc3ccc(-c4nnn[nH]4)cc3)n2)cc1`: the pIC50 in data set [1] is 4.42. In addition, the pKi in data set [2] is 4.63. Further, in data set [3], the inhibition result was “Active”.

With `Cc1cc(NS(=O)(=O)c2ccc(Nc3nc(-c4ccc(F)cc4)cs3)cc2)no1`, in data set [1], the pIC50 was 4.07. Also, the pKi in data set [2] was 4.28.

As to `O=S(=O)(O)c1ccc(Nc2nc(-c3ccc(C(F)(F)F)cc3)cs2)cc1`, the negative-log IC50 (pIC50) in data set [1] was 4.38. In addition, in data set [2], the pKi was 4.59.

Turning to `COc1cc(-c2nnn[nH]2)ccc1Nc1nc(-c2ccc(C(F)(F)F)cc2)cs1`, the pIC50 in data set [1] is 4.53. Besides, in data set [2], the pKi is 4.74. In addition, the inhibition result in data set [3] is “Active”.

As to `Cc1cc(NS(=O)(=O)c2ccc(Nc3nc(-c4ccccc4)cs3)cc2)no1`, in data set [1], the pIC50 is less than 4.00.

On to `FC(F)(F)c1ccc(-c2csc(Nc3ccc(-n4cnnn4)cc3)n2)cc1`, for which the negative-log IC50 (pIC50) in data set [1] is less than 4.00.

Consider `FC(F)(F)c1ccc(-c2csc(Nc3ccc(-c4nnn[nH]4)cn3)n2)cc1`, for which the pIC50 in data set [1] was 4.74. In addition, in data set [2], the negative-log Ki (pKi) was 4.95. Besides, the inhibition entry in data set [3] is “Active”.

For the compound `COc1ccccc1-c1csc(Nc2ccc(S(=O)(=O)Nc3cc(C)on3)cc2)n1`, the pIC50 in data set [1] was less than 4.00.

As for `Cc1cc(NS(=O)(=O)c2ccc(Nc3nc(-c4cccnc4)cs3)cc2)no1`, the pIC50 in data set [1] was less than 4.00.

As to `Cc1cc(NS(=O)(=O)c2ccc(Nc3nc(-c4ccccc4F)cs3)cc2)no1`, the negative-log IC50 (pIC50) in data set [1] is less than 4.00.

On to `O=C(O)c1ccc(Nc2nc(-c3ccc(C(F)(F)F)cc3)cs2)cc1`, for which the pIC50 in data set [1] was less than 4.30.

Turning to `Cc1cc(NS(=O)(=O)c2ccc(Nc3nc(-c4ccc(C#N)cc4)cs3)cc2)no1`, the negative-log IC50 (pIC50) in data set [1] was less than 4.00.

Consider `Cc1cc(NS(=O)(=O)c2ccc(Nc3nc(-c4ccc(O)cc4O)cs3)cc2)no1`, for which the inhibition result in data set [5] was “Dose-dependent-effect”. The pIC50 in data set [1] was 4.37. In addition, the pKi in data set [2] is 4.59.

Turning to `Cc1cc(NS(=O)(=O)c2ccc(Nc3nc(-c4ccc(Cl)cc4)cs3)cc2)no1`, in data set [1], the pIC50 was 4.20. The pKi in data set [2] is 4.41.

As for `O=C(O)Cc1ccc(Nc2nc(-c3ccc(C(F)(F)F)cc3)cs2)cc1`, the negative-log IC50 (pIC50) in data set [1] is less than 4.00.

On to `FC(F)(F)c1ccc(-c2csc(Nc3ccc(-c4nnn[nH]4)c(Cl)c3)n2)cc1`, for which the pIC50 in data set [1] is 4.92. Further, the inhibition result in data set [6], in data set [7], in data set [8] and in data set [3] was “Active” in each case. Moreover, in data set [2], the pKi is 5.14.

In the case of `NS(=O)(=O)c1ccc(Nc2nc(-c3ccc(C(F)(F)F)cc3)cs2)cc1`, the negative logarithm of the IC50 (pIC50) in data set [1] is less than 4.00.

Regarding `Fc1cc(Nc2nc(-c3ccc(C(F)(F)F)cc3)cs2)ccc1-c1nnn[nH]1`, the pIC50 in data set [1] is 4.97. Also, the inhibition entry in data set [6], in data set [7], in data set [8] and in data set [3] was “Active” each time. Moreover, the negative-log Ki (pKi) in data set [2] is 5.18.

As for `Cc1cc(NS(=O)(=O)c2ccc(Nc3nc(-c4ccccc4C(F)(F)F)cs3)cc2)no1`, the pIC50 in data set [1] is less than 4.00.

Consider `COc1ccc(-c2csc(Nc3ccc(S(=O)(=O)Nc4cc(C)on4)cc3)n2)cc1`, for which, in data set [1], the pIC50 was less than 4.00.

Turning to `Cc1cc(NS(=O)(=O)c2ccc(Nc3nc(-c4cccc(C(F)(F)F)c4)cs3)cc2)no1`, the pIC50 in data set [1] is less than 4.00.

Take `Cc1cc(NS(=O)(=O)c2ccc(Nc3nc(-c4ccc(O)cc4)cs3)cc2)no1`: the negative-log IC50 (pIC50) in data set [1] is less than 4.00.

On to `FC(F)(F)c1ccc(-c2csc(Nc3ccc(-c4nnn[nH]4)nc3)n2)cc1`, for which the pIC50 in data set [1] is less than 4.00.

As to `CN(c1ccc(-c2nnn[nH]2)cc1)c1nc(-c2ccc(C(F)(F)F)cc2)cs1`, in data set [1], the pIC50 is 4.72. Besides, in data set [2], the negative-log Ki (pKi) is 4.94.

For `Cc1cc(NS(=O)(=O)c2ccc(Nc3nc(-c4ccc(C(F)(F)F)cc4)cs3)cc2)no1`, in data set [1], the negative-log IC50 (pIC50) is 4.29. Also, the negative-log Ki (pKi) in data set [2] is 4.51.

Turning to `COc1cccc(-c2csc(Nc3ccc(S(=O)(=O)Nc4cc(C)on4)cc3)n2)c1`, in data set [1], the pIC50 was less than 4.00.

As to `FC(F)(F)c1ccc(-c2coc(Nc3ccc(-c4nnn[nH]4)cc3)n2)cc1`, the pIC50 in data set [1] is 4.74. Further, in data set [2], the pKi was 4.95. Moreover, the inhibition entry in data set [3] was “Active”.

Turning to `FC(F)(F)c1ccc(-c2csc(Nc3ccc(-c4nnn[nH]4)c4c3CCC4)n2)cc1`, the pIC50 in data set [1] is 4.76. Moreover, in data set [2], the negative-log Ki (pKi) was 4.97. Further, the inhibition entry in data set [3] is “Active”.

In the case of `Cc1cc(NS(=O)(=O)c2ccc(Nc3nc(-c4cccc(F)c4)cs3)cc2)no1`, in data set [1], the pIC50 is less than 4.00.

For the compound `Cc1cc(NS(=O)(=O)c2ccc(Nc3nc(-c4ccc(OC(F)(F)F)cc4)cs3)cc2)no1`, the negative logarithm of the IC50 (pIC50) in data set [1] is less than 4.00.

As for `Cc1cc(NS(=O)(=O)c2ccc(Nc3nc(-c4ccccc4Cl)cs3)cc2)no1`, in data set [1], the negative logarithm of the IC50 (pIC50) was less than 4.00.

With `FC(F)(F)c1ccc(-c2csc(Nc3ccc(-c4nnn[nH]4)c(C(F)(F)F)c3)n2)cc1`, the pIC50 in data set [1] is 4.89. Also, the inhibition result in data set [6], in data set [7], in data set [8] and in data set [3] was “Active” each time. Moreover, the pKi in data set [2] was 5.11.

Broadly, the pIC50 is the negative decadic logarithm of the IC50, by convention in mol/L. As a reminder, the pKi is −log10 of the Ki, conventionally taken in molar units. A word on the Km: it is the concentration of substrate that gives half-maximal velocity.
